What follows are compounds tested against T1, recombinant human baculovirus-expressed GST-tagged FASN (Homo sapiens, UniProt P49327) (assay: FASN enzyme activity assay: fluorescence-based detection of CoA with CPM). Conditions: 5 nM FASN, 150 μM NADPH, 10 μM acetyl-CoA, 25 μM malonyl-CoA, 90 minutes incubation.
T1 construct: GST; host or cells: baculovirus expression system (insect cells implied)
Type: biochemical
From the text: FASN Enzyme activity may be determined by detecting coenzyme A (CoA), a product of FASN-catalyzed synthesis of palmitate from acetyl-CoA and malonyl-CoA with NADPH as a cofactor. The assay is fluorescence-based and measures the interaction of free CoA with 7-diethylamino-3-(4′-malemimidylphenyl)-4-methylcoumarin (CPM; Life Technologies, CA) as described in Chung et al (2008). The coumarin derivative CPM contains a thiol-reactive maleimide that becomes fluorescent upon interaction with the sulfhydryl group of CoA.
For the example compounds described herein, the reaction was performed in 384-well low volume non-binding platews (Corning, NY) using recombinant human baculovirus-expressed GST-tagged FASN. The 20-μL assay mixture contained 50 mM HEPES (pH 7.5), 5 nM FASN, 150 μM NADPH (Sigma, St. Louis, MO), 10 μM acetyl-CoA (Sigma), 25 μM malonyl-CoA (Sigma) and test compound [diluted in dimethyl sulfoxide (DMSO); 0.5% DMSO final in assay after 100 nL addition]. See, Chung et al.; “A fluorescence-based thiol quantification assay for ultra-high-throughput screening for inhibitors of coenzyme A production,” Assay Drug Dev Tech 2008; 6:361-374.
The reaction was initiated by adding malonyl-CoA, followed by incubation for 90 minutes at […]. A stock solution of the CPM reagent was prepared in DMSO al 66 μM and stored at […]. To detect CoA produced in the FASN reaction, the CPM stock was diluted to 50 μM in 70% ethanol and added at 4 μL/well to the assay place. The reaction mixture was then incubated for 30 minutes. Fluorescence was measured using the EnVision™ 2102 multi-label plate reader (PerkinElmer, Waltham, MA) utilizing a general dual mirror, a 390 nm excitation filter and a 530 nm emission filter. Data analysis was performed using ActivityBase (IDBS, Guilford, UK). IC50 values were calculated by plotting the percent inhibition versus log 10 of the concentration of the compound, and fitting to the nonlinear regression sigmoidal dose-response (variable slope) equation in XLFit (IDBS).

T1 sequence (P49327 whole entry): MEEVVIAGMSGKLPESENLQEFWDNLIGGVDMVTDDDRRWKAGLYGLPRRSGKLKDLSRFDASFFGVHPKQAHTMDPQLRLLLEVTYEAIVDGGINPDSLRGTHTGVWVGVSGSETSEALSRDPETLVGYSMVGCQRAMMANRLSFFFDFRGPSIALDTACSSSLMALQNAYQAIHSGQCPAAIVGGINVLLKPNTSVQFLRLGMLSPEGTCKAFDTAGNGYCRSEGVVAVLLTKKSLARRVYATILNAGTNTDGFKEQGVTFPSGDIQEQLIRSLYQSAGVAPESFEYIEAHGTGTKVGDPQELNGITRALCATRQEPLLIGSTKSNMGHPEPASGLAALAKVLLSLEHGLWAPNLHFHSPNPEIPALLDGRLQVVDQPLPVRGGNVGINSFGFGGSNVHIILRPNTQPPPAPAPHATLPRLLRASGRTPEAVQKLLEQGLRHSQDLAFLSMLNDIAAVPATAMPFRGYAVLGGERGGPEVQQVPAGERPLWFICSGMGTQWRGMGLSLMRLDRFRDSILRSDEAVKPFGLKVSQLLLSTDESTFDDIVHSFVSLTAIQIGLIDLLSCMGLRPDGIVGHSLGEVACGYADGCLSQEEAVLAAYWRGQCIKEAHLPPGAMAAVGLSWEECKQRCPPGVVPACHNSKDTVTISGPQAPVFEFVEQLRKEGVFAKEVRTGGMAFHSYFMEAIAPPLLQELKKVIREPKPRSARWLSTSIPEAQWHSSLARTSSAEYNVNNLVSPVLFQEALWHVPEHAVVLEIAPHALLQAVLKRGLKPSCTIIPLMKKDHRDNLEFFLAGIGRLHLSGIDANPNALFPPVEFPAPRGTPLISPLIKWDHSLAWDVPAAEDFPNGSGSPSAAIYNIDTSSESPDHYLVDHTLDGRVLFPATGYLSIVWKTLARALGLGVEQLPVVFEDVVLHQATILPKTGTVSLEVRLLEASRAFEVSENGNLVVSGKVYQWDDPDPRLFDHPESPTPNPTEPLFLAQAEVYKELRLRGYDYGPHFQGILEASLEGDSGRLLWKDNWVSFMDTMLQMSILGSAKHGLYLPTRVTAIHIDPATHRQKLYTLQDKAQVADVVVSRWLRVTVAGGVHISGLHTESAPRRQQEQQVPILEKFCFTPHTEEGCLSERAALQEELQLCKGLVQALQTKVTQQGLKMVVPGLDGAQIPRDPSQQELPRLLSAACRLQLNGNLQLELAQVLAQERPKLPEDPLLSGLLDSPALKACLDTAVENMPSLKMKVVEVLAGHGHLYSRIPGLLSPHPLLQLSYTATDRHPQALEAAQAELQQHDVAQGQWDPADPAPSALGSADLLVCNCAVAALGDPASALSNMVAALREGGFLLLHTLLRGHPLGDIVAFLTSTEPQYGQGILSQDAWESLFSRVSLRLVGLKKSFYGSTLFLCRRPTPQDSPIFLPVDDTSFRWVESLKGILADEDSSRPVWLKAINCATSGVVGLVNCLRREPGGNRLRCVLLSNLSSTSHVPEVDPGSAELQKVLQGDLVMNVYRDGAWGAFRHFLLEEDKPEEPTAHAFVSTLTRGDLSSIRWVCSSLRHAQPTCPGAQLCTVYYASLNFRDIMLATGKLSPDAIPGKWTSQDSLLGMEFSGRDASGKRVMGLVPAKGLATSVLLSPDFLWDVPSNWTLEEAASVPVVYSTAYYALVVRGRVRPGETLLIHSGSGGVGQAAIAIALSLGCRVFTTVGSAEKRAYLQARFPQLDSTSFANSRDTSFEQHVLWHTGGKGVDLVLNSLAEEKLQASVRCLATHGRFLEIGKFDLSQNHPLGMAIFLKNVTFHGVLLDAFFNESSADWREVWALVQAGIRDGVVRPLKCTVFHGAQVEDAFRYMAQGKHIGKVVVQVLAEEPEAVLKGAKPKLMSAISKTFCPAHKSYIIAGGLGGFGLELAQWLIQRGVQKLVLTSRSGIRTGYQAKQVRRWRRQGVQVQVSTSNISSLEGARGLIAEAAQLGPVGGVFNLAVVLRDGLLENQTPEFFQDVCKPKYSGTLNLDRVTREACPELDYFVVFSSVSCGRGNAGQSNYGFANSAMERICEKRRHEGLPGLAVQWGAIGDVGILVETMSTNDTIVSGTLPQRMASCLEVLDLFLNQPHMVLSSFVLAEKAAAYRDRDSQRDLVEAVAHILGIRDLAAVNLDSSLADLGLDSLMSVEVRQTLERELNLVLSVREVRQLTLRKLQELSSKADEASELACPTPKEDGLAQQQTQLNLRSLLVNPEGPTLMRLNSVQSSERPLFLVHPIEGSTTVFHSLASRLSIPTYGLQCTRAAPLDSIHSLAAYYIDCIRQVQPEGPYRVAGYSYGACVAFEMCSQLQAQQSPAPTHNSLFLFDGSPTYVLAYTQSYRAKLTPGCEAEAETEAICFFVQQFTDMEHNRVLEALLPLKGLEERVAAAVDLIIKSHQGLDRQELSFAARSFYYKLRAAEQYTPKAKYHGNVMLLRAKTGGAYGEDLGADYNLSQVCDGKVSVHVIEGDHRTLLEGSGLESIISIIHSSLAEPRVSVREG

IC50	Structure (SMILES)
1 to 99 nM	CC(C)C(=O)N1CCC(Cc2ccc(-c3cnc4ccccc4c3)cc2)CC1 [Example 2, 2-Methyl-1-[4-(4-quinolin-3-yl-benzyl)-piperidin-1-yl]-propan-1-one]
1 to 99 nM	O=C(C1CCCO1)N1CCC(F)(Cc2ccc(-c3cnc4ccccc4c3)cc2)CC1 (stereo in doubt) [Example 189, (R)-(4-fluoro-4-(4-(quinolin-3-yl)benzyl)piperidin-1-yl)(tetrahydrofuran-2-yl)methanone]
1 to 99 nM	Cc1c(-c2ccc(C(C)C3CCN(C(=O)C4CC4)CC3)cc2)ccc2cccnc12 (stereo not shown) [Example 63, Cyclopropyl-(4-{1-[4-(8-methylquinolin-7-yl)-phenyl]-ethyl}-piperidin-1-yl)-methanone]
1 to 99 nM	CCC(=O)N1CCC(C#N)(Cc2ccc(-c3ccc4cccnc4c3OC)cc2)CC1 [Example 92, 4-[4-(8-methoxyquinolin-7-yl)-benzyl]-1-propionylpiperidine-4-carbonitrile]
1000 to 10000 nM	CC(c1ccc(-c2cnc3ccccc3c2)cc1)C1CCN(C(=O)OC(C)(C)C)CC1 (stereo not shown) [Example 57, 4-[1-(4-quinolin-3-yl-phenyl)-ethyl]-piperidine-1-carboxylic Acid t-Butyl Ester]
1 to 99 nM	O=C(C1CCCO1)N1CC=C(Cc2ccc(-c3cnc4ccccc4c3)cc2)CC1 (stereo in doubt) [Example 190, (R)-(4-(4-(quinolin-3-yl)benzyl)-5,6-dihydropyridin-1(2H)-yl)(tetrahydrofuran-2-yl)methanone]
100 to 999 nM	O=C(C1CC1)N1CC=C(Cc2ccc(-c3ccc4cccnc4c3)cc2)CC1 [Example 174]
1 to 99 nM	CCNC(=O)N1CCC(F)(Cc2ccc(-c3ccc4cccnc4c3C)cc2)CC1 [Example 228, N-ethyl-4-fluoro-4-[[4-(8-methyl-7-quinolyl)phenyl]methyl]piperidine-1-carboxamide]
1 to 99 nM	Cc1c(-c2ccc(C(C)C3CCN(C(=O)[C@H]4CCCO4)CC3)cc2)cnc2ccccc12 (mixture of isomers) [Example 71, (4-{1-[4-(4-Methylquinolin-3-yl)-phenyl]-ethyl}-piperidin-1-yl)-(R)-tetrahydrofuran-2-yl-methanone]
1 to 99 nM	Cc1c(-c2ccc(C(OCCN3CCCC3)C3CCN(C(=O)[C@H]4CCCO4)CC3)cc2)ccc2cccnc12 (stereo partly drawn) [Example 89, {4-[[4-(8-Methylquinolin-7-yl)-phenyl]-(2-pyrrolidin-1-yl-ethoxy)-methyl]-piperidin-1-yl}-(R)-tetrahydrofuran-2-yl-methanone]
1 to 99 nM	O=C([C@H]1CCCO1)N1CCC(C(F)(F)c2ccc(-c3cnc4ccccc4c3)cc2)CC1 [Example 18, {4-[Difluoro-(4-quinolin-3-yl-phenyl)-methyl]-piperidin-1-yl}-(R)-tetrahydrofuran-2-yl-methanone]
1000 to 10000 nM	CC(C)C(=O)N1CCC(C2(c3ccc(-c4ccc(CN(C)C)cc4)cc3)OCCO2)CC1 [Example 135, 1-{4-[2-(4′-Dimethylaminomethyl-biphenyl-4-yl)-1,3-dioxolan-2-yl]piperidin-1-yl}-2-methyl-propan-1-one]
1 to 99 nM	Cc1c(-c2ccc(CC3CCN(C(=O)[C@H]4CCCO4)CC3)cc2)cnc2ccccc12 [Example 15, {4-[4-(4-Methylquinolin-3-yl)-benzyl]-piperidin-1-yl}-(R)-tetrahydrofuran-2-yl-methanone]
1 to 99 nM	CCC(=O)N1CCC(F)(Cc2ccc(-c3cnc4ccccc4c3)cc2)CC1 [Example 161, 1-(4-fluoro-4-(4-(quinolin-3-yl)benzyl)piperidin-1-yl)propan-1-one]
1 to 99 nM	COCCOC(c1ccc(-c2cnc3ccccc3c2C)cc1)C1CCN(C(=O)[C@H]2CCCO2)CC1 (stereo partly drawn) [Example 83, (4-{(2-Methoxyethoxy)-[4-(4-methyl-quinolin-3-yl)-phenyl]-methyl}-piperidin-1-yl)-(R)-tetrahydrofuran-2-yl-methanone]
1 to 99 nM	Cc1nccc2cc(-c3ccc(CC4CCN(C(=O)[C@H]5CCCO5)CC4)cc3)ccc12 [Example 37, {4-[4-(1-methylisoquinolin-6-yl)-benzyl]-piperidin-1-yl}-(R)-tetrahydro-furan-2-yl-methanone]
1 to 99 nM	Cc1c(-c2ccc(CC3(F)CCN(C(=O)[C@H]4CCCO4)CC3)cc2)ccc2cccnc12 [Example 199, (R)-(4-fluoro-4-(4-(8-methylquinolin-7-yl)benzyl)piperidin-1-yl)(tetrahydrofuran-2-yl)methanone]

IC50	Structure (SMILES)
100 to 999 nM	CCC(=O)N1CCC(Cc2ccc(-c3ccc4nccn4c3C)cc2)CC1 [Example 94, 1-{4-[4-(5-Methylimidazo[1,2-a]pyridin-6-yl)-benzyl]-piperidin-1-yl}-propan-1-one]
1 to 99 nM	CC(c1ccc(-c2ccc3cccnc3c2Cl)cc1)C1CCN(C(=O)C2CC2)CC1 (stereo not shown) [Example 73, (4-{1-[4-(8-Chloroquinolin-7-yl)-phenyl]-ethyl}-piperidin-1-yl)-cyclopropylmethanone]
1000 to 10000 nM	CC(=O)N1CCC(C2(c3ccc(-c4ccc5ccncc5c4)cc3)OCCO2)CC1 [Example 115, 1-{4-[2-(4-Isoquinolin-7-yl-phenyl)-1,3-dioxolan-2-yl]-piperidin-1-yl}-ethanone]
1 to 99 nM	CCC(=O)N1CCC(C(C)c2ccc(-c3cnc4ccccc4c3)cc2)CC1 (stereo not shown) [Example 39, 1-(4-(1-(4-(quinolin-3-yl)phenyl)ethyl)piperidin-1-yl)propan-1-one]
1000 to 10000 nM	COC(=O)N1CCC(C(=O)c2ccc(-c3cnc4ccccc4c3)cc2F)CC1 [Example 144, 4-(2-Fluoro-4-quinolin-3-yl-benzoyl)piperidine-1-carboxylic Acid Methyl Ester]
1 to 99 nM	O=C([C@H]1CCCO1)N1CCC(F)(Cc2ccc(-c3ccc4cccnc4c3)cc2)CC1 [Example 187, (R)-(4-fluoro-4-(4-(quinolin-7-yl)benzyl)piperidin-1-yl)(tetrahydrofuran-2-yl)methanone]
1000 to 10000 nM	CCC(=O)N1CCC(C2(c3ccc(-c4ccc(CN(C)C)cc4)cc3)OCCO2)CC1 [Example 136, 1-{4-[2-(4′-Dimethylaminomethyl-biphenyl-4-yl)-1,3-dioxolan-2-yl]-piperidin-1-yl}-propan-1-one]
1000 to 10000 nM	CCOC(=O)N1CCC(C2(c3ccc(-c4ccc5ncccc5c4)cc3)OCCO2)CC1 [Example 101, 4-[2-(4-Quinolin-6-yl-phenyl)-1,3-dioxolan-2-yl]-piperidine-1-carboxylic Acid Ethyl Ester]
1000 to 10000 nM	CC(C)C(=O)N1CCC(C(=O)c2ccc(-c3ccc4ncccc4c3)cc2)CC1 [Example 109, 2-Methyl-1-[4-(4-quinolin-6-yl-benzoyl)-piperidin-1-yl]-propan-1-one]
1 to 99 nM	CCC(=O)N1CCC(C(C)c2ccc(-c3cnc4ccccc4c3)cc2)CC1 (single isomer, unassigned) [Example 68, 1-{4-[1-(4-Quinolin-3-yl-phenyl)-ethyl]-piperidin-1-yl}-propan-1-one]
1 to 99 nM	COc1c(-c2ccc(CC3CCN(C(=O)[C@H]4CCCO4)CC3)cc2)ccc2cccnc12 [Example 34, {4-[4-(8-Methoxyquinolin-7-yl)-benzyl]-piperidin-1-yl}-(R)-tetrahydrofuran-2-yl-methanone]
1 to 99 nM	CCC(=O)N1CCC(F)(C(OCCOC)c2ccc(-c3ccc4cccnc4c3C)cc2)CC1 (stereo not shown) [Example 226, 1-(4-Fluoro-4-{(2-methoxy-ethoxy)-[4-(8-methyl-quinolin-7-yl)-phenyl]-methyl}-piperidin-1-yl)-propan-1-one]
1 to 99 nM	CCC(=O)N1CCC(F)(Cc2ccc(-c3ccc4cccnc4c3C)cc2)CC1 [Example 185, 1-(4-fluoro-4-(4-(8-methylquinolin-7-yl)benzyl)piperidin-1-yl)propan-1-one]
100 to 999 nM	CCC(=O)N1CC=C(Cc2ccc(-c3ccc4cnccc4c3)cc2)CC1 [Example 166, 1-(4-(4-(isoquinolin-6-yl)benzyl)-5,6-dihydropyridin-1(2H)-yl)propan-1-one]
1 to 99 nM	CC(c1ccc(-c2ccc3cccnc3c2Cl)cc1)C1CCN(C(=O)[C@H]2CCCO2)CC1 (mixture of isomers) [Example 74, (4-{1-[4-(8-Chloroquinolin-7-yl)-phenyl]-ethyl}-piperidin-1-yl)-(R)-tetrahydrofuran-2-yl-methanone]
1 to 99 nM	CCC(=O)N1CCC(C(O)c2ccc(-c3ccc4cccnc4c3)cc2)CC1 (stereo not shown) [Example 125, 1-{4-[Hydroxy-(4-quinolin-7-yl-phenyl)-methyl]-piperidin-1-yl}-propan-1-one]
100 to 999 nM	CCC(=O)N1CCC(C)(Cc2ccc(-c3cnc4ccccc4c3)cc2)CC1 [Example 59, 1-[4-Methyl-4-(4-quinolin-3-yl-benzyl)-piperidin-1-yl]-propan-1-one]
